From ChEMBL document CHEMBL4725284, “Junceellolide B, a novel inhibitor of Hepatitis B virus” (Bioorg Med Chem, 2020)
The source made the active and inactive calls. The rule behind the calls is not given here.

Legend:
Hepatitis B virus [1] = experiment: Antiviral activity against HBV infected in human HepAD38 cells assessed as inhibition of viral DNA at 10 uM incubated for 4 days by SYBR green dye based RT-PCR analysis relative to control; assay type: functional; details: HePAD38, 96 h, time 4 day
Hepatitis B virus [2] = experiment: Antiviral activity against HBV infected in human HepAD38 cells assessed as inhibition of viral DNA incubated for 4 days by SYBR green dye based RT-PCR analysis; assay type: functional, organism-based; details: HePAD38, 96 h
Hepatitis B virus [3] = experiment: Antiviral activity against HBV infected in doxycycline-induced human HepG2-NTCP cells assessed as reduction in HBeAg secretion in supernatant measured from day 2 to 8 post treatment by time resolved fluoroimmunoassay; assay type: functional, organism-based; details: dose microM 2.5-10, time day 2-8
Hepatitis B virus [4] = experiment: Antiviral activity against HBV infected in doxycycline-induced human HepG2-NTCP cells assessed as reduction in HBsAg secretion in supernatant measured from day 2 to 8 post treatment by time resolved fluoroimmunoassay; assay type: functional, organism-based; details: dose microM 2.5-10, time day 2-8
Hepatitis B virus [5] = experiment: Antiviral activity against HBV infected human HepAD38 cells assessed as reduction in HBV DNA levels preincubated with compound for 4 days measured after 4 days by RT-PCR analysis; assay type: functional, organism-based
Hepatitis B virus [6] = experiment: Antiviral activity against HBV infected human HepAD38 cells assessed as reduction in HBeAg secretion preincubated with compound for 4 days measured after 4 days by […] analysis; assay type: functional, organism-based
Hepatitis B virus [7] = experiment: Antiviral activity against HBV infected human HepAD38 cells assessed as reduction in HBV RNA levels preincubated with compound for 4 days measured after 4 days by RT-PCR analysis; assay type: functional, organism-based
[8] = Cytotoxicity against human HePAD38 cells assessed as cell viability incubated for 72 hrs by MTT assay; assay type: cell-based
Hepatitis B virus [9] = experiment: Antiviral activity against HBV infected human HepAD38 cells assessed as reduction in HBV cccDNA levels pretreated with tet for 2 days measured after 8 days post treatment with compound by rolling-cycle amplification; assay type: functional, organism-based; details: time 10.0 day
Hepatitis B virus [10] = experiment: Antiviral activity against HBV infected human HepAD38 cells assessed as decrease in HBV cccDNA levels pretreated with tet for 2 days measured after 8 days post treatment with compound by southern blot analysis; assay type: functional, organism-based; details: time 10.0 day
Hepatitis B virus [11] = experiment: Antiviral activity against HBV infected human HepAD38 cells assessed as decrease in DP-rcDNA levels pretreated with tet for 2 days measured after 8 days post treatment with compound by southern blot analysis; assay type: functional, organism-based; details: time 10.0 day
Hepatitis B virus [12] = experiment: Antiviral activity against HBV infected human HepAD38 cells assessed as HBV cccDNA degradation in presence of tet and LAM at 10 uM obtained up to 8 days post treatment by rolling cycle amplification; assay type: functional, organism-based; details: time day <=8
Hepatitis B virus [13] = experiment: Antiviral activity against HBV infected human HepAD38 cells assessed as inhibition of total HBV RNA at 10 uM in absence of tet followed by treating with compound after 24 hrs measured after 4 days by RT-qPCR analysis; assay type: functional, organism-based; details: time 4.0 day
Hepatitis B virus [14] = experiment: Antiviral activity against HBV infected human HepAD38 cells assessed as inhibition of precRNA at 10 uM in absence of tet followed by treating with compound after 24 hrs measured after 4 days by RT-qPCR analysis; assay type: functional, organism-based; details: time 4.0 day
Hepatitis B virus [15] = experiment: Antiviral activity against HBV infected human HepAD38 cells assessed as inhibition of pgRNA at 10 uM in absence of tet followed by treating with compound after 24 hrs measured after 4 days by RT-qPCR analysis; assay type: functional, organism-based; details: time 4.0 day
Hepatitis B virus [16] = experiment: Antiviral activity against HBV infected human HepAD38 cells assessed as inhibition of 3.5 kb RNA at 10 uM in absence of tet followed by treating with compound after 24 hrs measured after 4 days by northern blot analysis; assay type: functional, organism-based; details: time 4.0 day
Hepatitis B virus [17] = experiment: Antiviral activity against HBV infected human HepAD38 cells assessed as decrease in HBV core proteins measured after 4 days by western blot analysis; assay type: functional, organism-based; details: dose microM 1.25-10, time 4.0 day
Hepatitis B virus [18] = experiment: Antiviral activity against HBV infected human HepAD38 cells assessed as decrease in reverse-transcripted ssDNA treated with tet and LAM followed by addition of compound by southern blot analysis; assay type: functional, organism-based; details: dose microM 1.25-10, time 4.0 day
Hepatitis B virus [19] = experiment: Antiviral activity against HBV infected human HepAD38 cells assessed as decrease in reverse-transcripted rcDNA treated with tet and LAM followed by addition of compound by southern blot analysis; assay type: functional, organism-based; details: dose microM 1.25-10, time 4.0 day
Hepatitis B virus [20] = experiment: Antiviral activity against HBV infected human HepAD38 cells assessed as degradation of HBV RNA; assay type: functional, organism-based
Hepatitis B virus [21] = experiment: Antiviral activity against HBV infected in human HuH7 cells transfected with luciferase reporter plasmid assessed as repression of HBV basal core promoter at 0.25 to 10 uM incubated for 48 hrs by luciferase assay; assay type: functional, organism-based; details: Huh-7, dose microM 0.25-10, time 48.0 hrs
Hepatitis B virus [22] = experiment: Antiviral activity against HBV infected in human HuH7 cells transfected with luciferase reporter plasmid assessed as repression of HBV enhancer I at 0.25 to 10 uM incubated for 48 hrs by luciferase assay; assay type: functional, organism-based; details: Huh-7, dose microM 0.25-10, time 48.0 hrs
Hepatitis B virus [23] = experiment: Antiviral activity against HBV infected in human HuH7 cells assessed as reduction in the expression of viral mRNA at 10 uM incubated for 4 days by FPKM analysis; assay type: functional, organism-based; details: Huh-7, time 4.0 day
[24] = Downregulation of ZBED6 in HBV infected human HepAD38 cells assessed as inhibition rate at 10 uM in absence of tet incubated with compound for 4 days followed by RNA extraction with trizol reagent measured by qRT-PCR analysis relative to control; assay type: functional; details: Hepatitis B virus, HePAD38, 96 h, time 4 day
[25] = Downregulation of ZBTB7B in HBV infected human HepAD38 cells assessed as inhibitory rate at 10 uM in absence of tet incubated with compound for 4 days followed by RNA extraction with trizol reagent and measured by qRT-PCR analysis relative to control; assay type: functional; details: Hepatitis B virus, HePAD38, 96 h, time 4 day
[26] = Cytotoxicity against human HepG2 cells assessed as cell viability incubated for 72 hrs by MTT assay; assay type: cell-based

C=C1CC[C@H](OC(C)=O)[C@]2(C)[C@@H](OC(C)=O)/C=C/C(=C)[C@H](Cl)[C@@H]3OC(=O)[C@H](C)[C@@]3(O)[C@@H](OC(C)=O)[C@@H]12
inhibition at 10 µM (Hepatitis B virus [1]): 64% | EC50 (Hepatitis B virus [2]): 830 nM | Activity (Hepatitis B virus [3]): Dose-dependent effect | Activity (Hepatitis B virus [4]): Dose-dependent effect | EC50 (Hepatitis B virus [5]): 830 nM | EC50 (Hepatitis B virus [6]): 7.75 µM | EC50 (Hepatitis B virus [7]): 2870 nM | CC50 at 72 h [8]: > 100 µM | Activity (Hepatitis B virus [9]): Active | Activity (Hepatitis B virus [10]): Active | Activity (Hepatitis B virus [11]): Active | Activity (Hepatitis B virus [12]): inactive | inhibition (Hepatitis B virus [13]): Active | inhibition (Hepatitis B virus [14]): Active | inhibition (Hepatitis B virus [15]): Active | inhibition (Hepatitis B virus [16]): Active | Activity (Hepatitis B virus [17]): Dose-dependent effect | Activity (Hepatitis B virus [18]): Dose-dependent effect | Activity (Hepatitis B virus [19]): Dose-dependent effect | Activity (Hepatitis B virus [20]): inactive | Activity (Hepatitis B virus [21]): Active | Activity (Hepatitis B virus [22]): Active | Activity (Hepatitis B virus [23]): Active | inhibition at 10 µM [24]: 28% | inhibition at 10 µM [25]: 32% | CC50 at 72 h [26]: > 100 µM
